Source: US6458748B1, “Di- or tri-fluoromethanesulfonyl anilide derivatives, process for the preparation of them and herbicides containing them as the active ingredient” (Ihara Chemical Industry Co., Ltd., priority 1998, dated 2002)

Columns and labels:
[1] = system: Echindchloa oryzicola Vasing. (Ec); assay: Test 5 herbicidal effect by application stage; conditions: 28th day from application
[2] = system: Monochoria vaginalis (Burm. f.) Presl var. plantaginea (Roxb.) Solms-Laub.; assay: Test 1 paddy pot herbicidal effect, water surface application; format: in vivo; conditions: applied day after sowing, evaluated 28 days later
Source text: (§1) Standard of herbicidal effect (level of suppression of development and growth) […] Herbicidal effect of 90% or more, injury to paddy rice […] Herbicidal effect of 70% or more to less than 90%, injury to paddy rice […] 2: […]

[3] = system: Echinochloa oryzicola vasing.; assay: as above; format: in vivo; conditions: applied day after sowing, evaluated 28 days later
Source text: as §1

[4] = system: Echinochloa oryzicola vasing.; assay: Test 3 herbicidal effect, application before germination or at 3-leaf stage; conditions: 28th day from application
[5] = system: Echinochloa oryzicola vasing.; assay: Test 4 paddy pot herbicidal effect; conditions: applied next day, 28th day from application
[6] = system: Sagittaria pygmaea Miq.; assay: Test 4 paddy pot herbicidal effect; conditions: applied next day, 28th day from application
[7] = system: Cyperus serotinus Rottb.; assay: Test 4 paddy pot herbicidal effect; conditions: applied next day, 28th day from application
[8] = system: Oryza sativa L. (paddy rice); assay: Test 4 injury to paddy rice; conditions: two-leaf stage seedlings, 28th day from application
[9] = system: Monochoria vaginalis (Burm. f.) Presl var. plantaginea (Roxb.) Solms-Laub.; assay: Test 2 paddy pot herbicidal effect with water drainage and feeding; format: in vivo; conditions: water drainage and feeding 2 cm per day for two days, 28th day
Description: (§2) Further, a tuber of Sagittaria pygmaea Miq. was buried. […] For two days starting from the next day, water drainage and feeding each of 2 cm in depth per day were conducted.

[10] = system: Sagittaria pygmaea Miq.; assay: as above; format: in vivo; conditions: water drainage and feeding 2 cm per day for two days, 28th day
Description: as §2

With `COc1cc(OC)nc(C(O)c2ccccc2NS(=O)(=O)C(F)(F)F)n1` (stereo not drawn) [Comparative Compound, 2-[(4,6-dimethoxypyrimidine-2-yl)hydroxymethyl]-N-trifluoromethanes ulfonyl anilide, reference compound] the “Herbicidal effect (Ec) Application stage 1-leaf” value ([1]; 1.3 g/10 ares) was 0 (Herbicidal effect of less than 10%, injury to paddy rice), the “Herbicidal effect (Ec) Application stage 2-leaf” value ([1]; 1.3 g/10 ares) was 0 (Herbicidal effect of less than 10%, injury to paddy rice) and the “Herbicidal effect (Ec) Application stage 3-leaf” value ([1]; 1.3 g/10 ares) was 0 (Herbicidal effect of less than 10%, injury to paddy rice). For the same compound, the “Herbicidal effect (Ec) Application stage 1-leaf” value ([1]; 2.5 g/10 ares) was 1 (Herbicidal effect of 10% or more to less than 30%, injury to paddy rice), the “Herbicidal effect (Ec) Application stage 2-leaf” value ([1]; 2.5 g/10 ares) was 0 (Herbicidal effect of less than 10%, injury to paddy rice) and the “Herbicidal effect (Ec) Application stage 3-leaf” value ([1]; 2.5 g/10 ares) was 0 (Herbicidal effect of less than 10%, injury to paddy rice). The “Herbicidal effect (Ec) Application stage 1-leaf” value ([1]; 5.0 g/10 ares) was 3 (Herbicidal effect of 50% or more to less than 70%, injury to paddy rice), the “Herbicidal effect (Ec) Application stage 2-leaf” value ([1]; 5.0 g/10 ares) was 2 (Herbicidal effect of 30% or more to less than 50%, injury to paddy rice) and the “Herbicidal effect (Ec) Application stage 3-leaf” value ([1]; 5.0 g/10 ares) was 2 (Herbicidal effect of 30% or more to less than 50%, injury to paddy rice). The “Herbicidal effect Mo” value ([2]; 0.4 g/10 ares) was 4 (Herbicidal effect of 70% or more to less than 90%, injury to paddy rice), the “Herbicidal effect Mo” value ([2]; 1.6 g/10 ares) was 5 (Herbicidal effect of 90% or more, injury to paddy rice) and the “Herbicidal effect Mo” value ([2]; 6.3 g/10 ares) was 5 (Herbicidal effect of 90% or more, injury to paddy rice). For the same compound, the “Herbicidal effect Mo” value ([2]; 25.0 g/10 ares) was 5 (Herbicidal effect of 90% or more, injury to paddy rice), the “Herbicidal effect Ec” value ([3]; 0.4 g/10 ares) was 0 (Herbicidal effect of less than 10%, injury to paddy rice) and the “Herbicidal effect Ec” value ([3]; 1.6 g/10 ares) was 1 (Herbicidal effect of 10% or more to less than 30%, injury to paddy rice). For the same compound, the “Herbicidal effect Ec” value ([3]; 6.3 g/10 ares) was 3 (Herbicidal effect of 50% or more to less than 70%, injury to paddy rice), the “Herbicidal effect Ec” value ([3]; 25.0 g/10 ares) was 4 (Herbicidal effect of 70% or more to less than 90%, injury to paddy rice) and the “Herbicidal effect (Ec) Application at 3-leaf stage” value (“Herbicidal effect … at 3-leaf stage” for short) ([4]; 0.3 g/10 ares) was 0 (Herbicidal effect of less than 10%, injury to paddy rice). The “Herbicidal effect (Ec) Application before germination” value ([4]; 0.3 g/10 ares) was 0 (Herbicidal effect of less than 10%, injury to paddy rice), the “Herbicidal effect … at 3-leaf stage” value ([4]; 0.6 g/10 ares) was 0 (Herbicidal effect of less than 10%, injury to paddy rice) and the “Herbicidal effect (Ec) Application before germination” value ([4]; 0.6 g/10 ares) was 0 (Herbicidal effect of less than 10%, injury to paddy rice). For the same compound, the “Herbicidal effect … at 3-leaf stage” value ([4]; 1.3 g/10 ares) was 0 (Herbicidal effect of less than 10%, injury to paddy rice), the “Herbicidal effect (Ec) Application before germination” value ([4]; 1.3 g/10 ares) was 1 (Herbicidal effect of 10% or more to less than 30%, injury to paddy rice) and the “Herbicidal effect … at 3-leaf stage” value ([4]; 2.5 g/10 ares) was 0 (Herbicidal effect of less than 10%, injury to paddy rice). For the same compound, the “Herbicidal effect (Ec) Application before germination” value ([4]; 2.5 g/10 ares) was 2 (Herbicidal effect of 30% or more to less than 50%, injury to paddy rice), the “Herbicidal effect … at 3-leaf stage” value ([4]; 5.0 g/10 ares) was 1 (Herbicidal effect of 10% or more to less than 30%, injury to paddy rice) and the “Herbicidal effect (Ec) Application before germination” value ([4]; 5.0 g/10 ares) was 3 (Herbicidal effect of 50% or more to less than 70%, injury to paddy rice). For the same compound, the “Herbicidal effect Ec” value ([5]; 0.6 g/10 ares) was 0 (Herbicidal effect of less than 10%, injury to paddy rice), the “Herbicidal effect Ec” value ([5]; 1.3 g/10 ares) was 1 (Herbicidal effect of 10% or more to less than 30%, injury to paddy rice) and the “Herbicidal effect Ec” value ([5]; 2.5 g/10 ares) was 2 (Herbicidal effect of 30% or more to less than 50%, injury to paddy rice). For the same compound, the “Herbicidal effect Ec” value ([5]; 5.0 g/10 ares) was 4 (Herbicidal effect of 70% or more to less than 90%, injury to paddy rice), the “Herbicidal effect Sa” value ([6]; 0.6 g/10 ares) was 5 (Herbicidal effect of 90% or more, injury to paddy rice) and the “Herbicidal effect Sa” value ([6]; 1.3 g/10 ares) was 5 (Herbicidal effect of 90% or more, injury to paddy rice). For the same compound, the “Herbicidal effect Sa” value ([6]; 2.5 g/10 ares) was 5 (Herbicidal effect of 90% or more, injury to paddy rice), the “Herbicidal effect Sa” value ([6]; 5.0 g/10 ares) was 5 (Herbicidal effect of 90% or more, injury to paddy rice) and the “Herbicidal effect Cy” value ([7]; 0.6 g/10 ares) was 5 (Herbicidal effect of 90% or more, injury to paddy rice). The “Herbicidal effect Cy” value ([7]; 1.3 g/10 ares) was 5 (Herbicidal effect of 90% or more, injury to paddy rice), the “Herbicidal effect Cy” value ([7]; 2.5 g/10 ares) was 5 (Herbicidal effect of 90% or more, injury to paddy rice) and the “Herbicidal effect Cy” value ([7]; 5.0 g/10 ares) was 5 (Herbicidal effect of 90% or more, injury to paddy rice). The “Injury to rice Or” value ([8]; 0.6 g/10 ares) was 0 (Herbicidal effect of less than 10%, injury to paddy rice), the “Injury to rice Or” value ([8]; 1.3 g/10 ares) was 0 (Herbicidal effect of less than 10%, injury to paddy rice) and the “Injury to rice Or” value ([8]; 2.5 g/10 ares) was 0 (Herbicidal effect of less than 10%, injury to paddy rice). The “Injury to rice Or” value ([8]; 5.0 g/10 ares) was 1 (Herbicidal effect of 10% or more to less than 30%, injury to paddy rice), the “Herbicidal effect Ec” value ([9]; 0.6 g/10 ares) was 0 (Herbicidal effect of less than 10%, injury to paddy rice) and the “Herbicidal effect Ec” value ([9]; 1.3 g/10 ares) was 1 (Herbicidal effect of 10% or more to less than 30%, injury to paddy rice). For the same compound, the “Herbicidal effect Ec” value ([9]; 2.5 g/10 ares) was 3 (Herbicidal effect of 50% or more to less than 70%, injury to paddy rice), the “Herbicidal effect Ec” value ([9]; 5.0 g/10 ares) was 5 (Herbicidal effect of 90% or more, injury to paddy rice) and the “Herbicidal effect Sc” value ([10]; 0.6 g/10 ares) was 0 (Herbicidal effect of less than 10%, injury to paddy rice). For the same compound, the “Herbicidal effect Sc” value ([10]; 1.3 g/10 ares) was 2 (Herbicidal effect of 30% or more to less than 50%, injury to paddy rice), the “Herbicidal effect Sc” value ([10]; 2.5 g/10 ares) was 4 (Herbicidal effect of 70% or more to less than 90%, injury to paddy rice) and the “Herbicidal effect Sc” value ([10]; 5.0 g/10 ares) was 5 (Herbicidal effect of 90% or more, injury to paddy rice).
